Consider 3 compounds from article PMC10257182, “Discovery of senolytics using machine learning” (Nature Communications, 2023).

Where “and” joins values, the source holds several entries; their conditions need not be identical. Identical values can stand only once.

Common to all, as to assay type: cell-based, human
Assay [1] deals with proliferating IMR90 cells. The assay is described as follows: BrdU incorporation proliferation assay. Conditions: IMR90 cells; single replicates (SUP FIG 9G). As to the method: 5-bromo-2′-deoxyuridine (BrdU) incorporation was used to measure the number of cells actively replicating DNA. Cells were incubated with 10 μM BrdU (85811, Sigma) for 18 h. After that, cells were fixed with 4% Paraformaldehyde, permeabilised, blocked and then stained for immunofluorescence using BrdU primary antibody (555627 BD Pharmigen), Alexa fluor secondary for detection, and DAPI staining for cell counting. Acquisition was done with a Nikon TI2 microscope and analysis was performed with ImageJ for cell counting.
A general note: Uptake of a labelled nucleoside into DNA is a usual measure of proliferation.

Assay [2] concerns senescent A549 cells (etoposide-induced). The assay is described as follows: Nuclei count senolytic assay, therapy-induced senescence (TIS) model, senescent cells. Conditions: for % Cell Survival: senescence cells, single replicate. Here is the method: (§1) We performed a second validation of the effectiveness of our machine learning models using a different stressor. We focused on therapy-induced senescence (TIS, Supplementary Fig. 6a), where human epithelial cancerous cells (A549) were induced to become senescent by addition of etoposide. Cells were treated with 100 μM etoposide for 48 h, followed by another three days of exposure to media in standard conditions.
(§2) We performed experimental validation of the compounds with z-score > 8 (Fig. 2e). […] We employed two cellular models of senescence: one of OIS and a second one of TIS. For the OIS case, we utilised IMR90 ER:RAS cells with 4-OHT at 100 nM. […] For the TIS model, we used A549 cells with etoposide at 100 μM. The exposure of the cells to etoposide lasted 48 h, after which period the cells were cultivated for a further three days with normal media.
(§3) IMR90 (CCL-186) human foetal lung fibroblasts and A549 (CCL-185) human lung adenocarcinoma cells were obtained from the American Type Culture Collection (ATCC, Manassas, VA). The cell lines were confirmed to be mycoplasma negative (Lonza MycoAlert, cat #LT07-118). IMR90 ER:RAS is a derivative of IMR90 cells expressing a switchable version of oncogenic H-Ras[84]. IMR90 ER:RAS and A549 cells were maintained in Dulbecco’s Modified Eagle Medium (DMEM, ThermoFisher) supplemented with foetal bovine serum (10%), L-glutamine (2 mM, ThermoFisher), and antibiotic-antimycotic solution (1%, ThermoFisher) and incubated under standard tissue culture conditions (37 °C and 5% CO2). For induction of the senescent phenotype, IMR90-ER:RAS cells were cultured in hydroxytamoxifen (4-OHT) (Sigma) added media at 100 nM final concentration. IMR90 were kept in culture for over 27 passages for replicative senescence. Cells were tested for mycoplasma on a regular basis.
(§4) Cells were seeded (50 μL per well) into 384-well plates (IMR90 ER:RAS cells in Nunc Optical Bottom Polybase Microplates [#142761, Thermo Scientific, Rochester, NY] and A549 cells in CELLSTAR Cell Culture Microplates [#781091, Greiner Bio-One, Kremsmünster, Austria]). Cells were incubated under standard tissue culture conditions for 24 h before the addition of compounds. Passage 14 IMR90 ER:RAS cells were seeded at 1300 cells per well in the control condition, and at 1600 cells per well in the senescent case. Passage 34 A549 cells were seeded at 7000 cells per well in the control condition, and at 10,000 cells per well in the senescent case.
(§5) Dose response plates were prepared with a DMSO control and a 10-point […] concentration range, and added to the compounds using a D300e digital dispenser (Tecan Trading AG, Switzerland) at a final concentration of between 10 μM and 10 nM. Every screened condition was carried out in triplicate. After 72 h of incubation with exposure to the compounds, cells were fixed by the addition of an equal volume of formaldehyde (8%, 50 μL; #BP531-500, Fisher Bioreagents, Fisher Scientific, Loughborough, Leicestershire) to the existing media, incubated at room temperature (30 min), and washed three times in phosphate-buffered saline (PBS). Cells were then permeabilised in Triton-X100 (0.1%, 50 μL) and incubated at room temperature (30 min) followed by three more washes with PBS.
(§6) Cells were stained with Hoechst 33342 for nuclei count (excitation/emission wavelength at 387/447 […], DAPI channel, original concentration at 10 mg/ml, final concentration at 2 μg/ml; H1399, Molecular Probes, Eugene, OR). The staining solution was prepared in bovine serum albumin solution (10%). The staining solution was added to each well (30 μL) and incubated in the dark at room temperature (30 min), followed by three washes with PBS and no final aspiration. Plates were foil sealed.
(§7) Plates were imaged on an ImageXpress micro XLS (Molecular Devices, Eugene, OR) equipped with a robotic plate loader (Scara4, PAA, UK).

For assay [3], the system named is non-senescent control A549 cells. Kind of assay: Nuclei count senolytic assay, TIS model, non-senescent control cells. Conditions: for % Cell Survival: control cells, single replicate. Here is the method: as §1, §2, §3, §4, §5, §6, §7
For assay [4], the system named is p16 and p21 mRNA in IMR90 ER:RAS cells. The assay is described as follows: p16 and p21 mRNA expression by RT-qPCR, OIS. Conditions: ER:RAS cells; ER:RAS DMSO = 1; n 4. Here is the method:
(§8) Total RNA was isolated using RNAeasy kit (Quiagen). cDNA was generated with reverse transcriptase iScript (Bio-Rad). RT-qPCR was performed using SYBR Select Master Mix (Applied Biosystems) in OneStepPlus detection system (Applied Biosystems). Oligos for amplification were: NOXA Fw-[…] and Rv-[…]; b-ACTIN Fw-[…] and Rv-[…]; IL1a Fw-[…] and Rv- […]; IL1b Fw-[…] and Rv- […]; IL8 Fw-[…] and Rv-[…]; p16 Fw-CGGTCGGAGGCCGATCCAG and Rv- […]; p21Fw-[…] and Rv- […].
For orientation: Real-time PCR tracks product formation cycle by cycle.

Assay [5] has as its system IL1α, IL1β and IL8 mRNA in IMR90 ER:RAS cells. Kind of assay: IL1α, IL1β and IL8 mRNA expression by RT-qPCR, OIS. Conditions: ER:RAS cells, RAS OLE group mean, RAS C (DMSO) = 1. As to the method: as §8
The subject of assay [6] is p16 and p21 mRNA in IMR90 cells at passage 27. Kind of assay: p16 and p21 mRNA expression by RT-qPCR, replicative senescence. Conditions: Replicative senescence; Replicative senescence DMSO = 1; n 3. As to the method: as §8
Assay [7] deals with IL1α, IL1β and IL8 mRNA in IMR90 cells at passage 27. Kind of assay: IL1α, IL1β and IL8 mRNA expression by RT-qPCR, replicative senescence. Conditions: Replicative senescence, OLE group mean, DMSO = 1. Here is the method:
as §8

The term IC50 denotes the point on the concentration scale where inhibition reaches its midpoint.

As for `COc1cc([C@@H]2c3cc4c(cc3[C@@H](O[C@@H]3O[C@@H]5CO[C@@H](C)O[C@H]5[C@H](O)[C@H]3O)[C@H]3COC(=O)[C@H]23)OCO4)cc(OC)c1O` [Etoposide], in assay [1], the “% BrdU positive cells” value is 3.24% and 11.47% and 6.41% and 6.29%.

`CC1(C)CCC(c2ccc(Cl)cc2)=C(CN2CCN(c3ccc(C(=O)NS(=O)(=O)c4ccc(N[C@H](CCN5CCOCC5)CSc5ccccc5)c(S(=O)(=O)C(F)(F)F)c4)cc3)CC2)C1` [navitoclax, reference compound]: the viability at 10 µM amounted to 6.32% in assay [2] (Homo sapiens, A549, log (dose) [M] -5, Senescent cells, mean, read-out: Mean % Cell Survival) and 61.6% in assay [3] (Homo sapiens, A549, log (dose) [M] -5, Control cells, mean, read-out: Mean % Cell Survival). In addition, the viability at 4.68 µM is 13.6% in assay [2] (Homo sapiens, A549, log (dose) [M] -5.33, Senescent cells, mean, read-out: Mean % Cell Survival) and 105% in assay [3] (Homo sapiens, A549, log (dose) [M] -5.33, Control cells, mean, read-out: Mean % Cell Survival). Moreover, the viability at 2.19 µM came to 17.1% in assay [2] (Homo sapiens, A549, log (dose) [M] -5.66, Senescent cells, mean, read-out: Mean % Cell Survival) and 107% in assay [3] (Homo sapiens, A549, log (dose) [M] -5.66, Control cells, mean, read-out: Mean % Cell Survival). Besides, the viability at 1 µM in assay [2] (Homo sapiens, A549, log (dose) [M] -6, Senescent cells, mean, read-out: Mean % Cell Survival) was 27.7%; in assay [3] (Homo sapiens, A549, log (dose) [M] -6, Control cells, mean, read-out: Mean % Cell Survival), 129%. The viability at 0.468 µM was found to be 43.7% in assay [2] (Homo sapiens, A549, log (dose) [M] -6.33, Senescent cells, mean, read-out: Mean % Cell Survival) and 116% in assay [3] (Homo sapiens, A549, log (dose) [M] -6.33, Control cells, mean, read-out: Mean % Cell Survival). Besides, the viability at 0.219 µM in assay [2] (Homo sapiens, A549, log (dose) [M] -6.66, Senescent cells, mean, read-out: Mean % Cell Survival) was determined as 65.4%; in assay [3] (Homo sapiens, A549, log (dose) [M] -6.66, Control cells, mean, read-out: Mean % Cell Survival) it was 109%. Also, the viability at 0.1 µM in assay [2] (Homo sapiens, A549, log (dose) [M] -7, Senescent cells, mean, read-out: Mean % Cell Survival) was found to be 94%; in assay [3] (Homo sapiens, A549, log (dose) [M] -7, Control cells, mean, read-out: Mean % Cell Survival), 97.7%. In addition, the viability at 0.0468 µM in assay [2] (Homo sapiens, A549, log (dose) [M] -7.33, Senescent cells, mean, read-out: Mean % Cell Survival) worked out at 91.8%; in assay [3] (Homo sapiens, A549, log (dose) [M] -7.33, Control cells, mean, read-out: Mean % Cell Survival) it was 98.7%. Moreover, the viability at 0.0219 µM in assay [2] (Homo sapiens, A549, log (dose) [M] -7.66, Senescent cells, mean, read-out: Mean % Cell Survival) amounted to 109%; in assay [3] (Homo sapiens, A549, log (dose) [M] -7.66, Control cells, mean, read-out: Mean % Cell Survival) it was 96.8%. Besides, the viability at 0.01 µM in assay [2] (Homo sapiens, A549, log (dose) [M] -8, Senescent cells, mean, read-out: Mean % Cell Survival) worked out at 103%; in assay [3] (Homo sapiens, A549, log (dose) [M] -8, Control cells, mean, read-out: Mean % Cell Survival), 98.9%. Moreover, the IC50 in assay [2] (Homo sapiens, TIS model, etoposide-induced senescent A549, nuclei count, 72 h) amounted to 0.44 µM; in assay [3] (Homo sapiens, TIS model, non-senescent A549, nuclei count, 72 h), 10.2 µM. Moreover, in assay [2] (TIS A549, Hoechst labelling, marginal or no effect on normal cells), the “concentration at which a senolytic effect was reached” value stood at 1 µM. The “% Cell Survival” value in assay [2] (log (dose) [M] -5) is 4.269% and 4.259% and 10.4231%; in assay [2] (log (dose) [M] -5.33), 11.4818% and 14.3371% and 14.9601%; in assay [2] (log (dose) [M] -5.66), 15.9961% and 17.9964% and 17.29%; in assay [2] (log (dose) [M] -6), 23.7488% and 24.4151% and 34.8866%; in assay [2] (log (dose) [M] -6.33), 46.0255% and 39.6521% and 45.3096%; in assay [2] (log (dose) [M] -6.66), 63.9352% and 60.5879% and 71.5512%. For the same compound, the “% Cell Survival” value in assay [2] (log (dose) [M] -7) is 88.2728% and 86.8026% and 106.99%; in assay [2] (log (dose) [M] -7.33) it was 62.8557% and 104.139% and 108.461%; in assay [2] (log (dose) [M] -7.66), 92.002% and 113.377% and 120.969%; in assay [2] (log (dose) [M] -8), 100.736% and 105.159% and 103.556%; in assay [3] (log (dose) [M] -5) it was 52.0394% and 75.3687% and 57.3758%; in assay [3] (log (dose) [M] -5.33), 116.878% and 75.1475% and 123.277%. Also, the “% Cell Survival” value is 112.518% and 117.404% and 91.8458% in assay [3] (log (dose) [M] -5.66); 119.058% and 135.177% and 132.987% in assay [3] (log (dose) [M] -6); 128.692% and 108.112% and 112.083% in assay [3] (log (dose) [M] -6.33); 114.276% and 101.991% and 109.489% in assay [3] (log (dose) [M] -6.66); 92.6864% and 99.5575% and 100.964% in assay [3] (log (dose) [M] -7); 97.6793% and 98.2301% and 100.074% in assay [3] (log (dose) [M] -7.33). The “% Cell Survival” value is 95.0774% and 99.4838% and 95.7746% in assay [3] (log (dose) [M] -7.66); 98.1716% and 98.2301% and 100.445% in assay [3] (log (dose) [M] -8).

On to `COC1CC(OC2CCC3(C)C(CCC4C3CCC3(C)C(C5=CC(=O)OC5)C(OC(C)=O)CC43O)C2)OC(C)C1O` (stereo not drawn) [OLE], for which the “p16 mRNA expression, mean (Test details, Mean 2)” value is 0.5169 in assay [4] and 0.5298 in assay [6]. Moreover, the results for the “p21 mRNA expression, mean (Test details, Mean 2)” value in assay [4] and in assay [6] were 0.5115 and 0.4442, respectively. In addition, the “Il1a mRNA expression, mean (Mean 2)” value in assay [5] (n=4) was 0.4376; in assay [7] (n=3) it was 0.411. For the same compound, the entries for the “Il8 mRNA expression, mean (Mean 2)” value in assay [5] (n=5) and in assay [7] (n=3) were 0.3662 and 0.5871, respectively. Also, the “Il1b mRNA expression, mean (Mean 2)” value in assay [5] (n=6) turned out to be 0.7128; in assay [7] (n=4) it was 0.4327.
